Results published in publication PMC5218480 (PLoS ONE, 2017).

Tested on: MV-4-11 cells
Test: Gene expression microarray analysis (Affymetrix PrimeView) and GSEA
Format: cell-based, human
Design: RFU PODN (11730768_x_at) / Fold change /veh PODN (11730768_x_at) / RFU LINC00158 (11744669_a_at) / Fold change /veh LINC00158 (11744669_a_at) / RFU DUSP10 (11751237_a_at) / Fold change /veh DUSP10 (11751237_a_at) / RFU ID3 (11757404_x_at) / Fold change /veh ID3 (11757404_x_at) / RFU PLEKHG5 (11737974_s_at) / Fold change /veh PLEKHG5 (11737974_s_at) / RFU LRRC4B (11730491_at) / Fold change /veh LRRC4B (11730491_at) / RFU GIMAP4 (11747438_a_at) / Fold change /veh GIMAP4 (11747438_a_at) / RFU KRT8 (11758183_x_at) / Fold change /veh KRT8 (11758183_x_at) / RFU CNN1 (11734310_a_at) / Fold change /veh CNN1 (11734310_a_at) / RFU VPS37D (11726825_at) / Fold change /veh VPS37D (11726825_at) / RFU C10orf10 (11716522_x_at) / Fold change /veh C10orf10 (11716522_x_at) / RFU KIR2DL2 /// KIR2DL4 /// KIR2DL5A /// KIR2DL5B /// KIR2DS1 /// KIR2DS2 /// KIR2DS3 /// KIR2DS4 /// KIR3DL3 /// KIR3DL3 /// KIR3DS1 (11738374_at) / Fold change /veh KIR2DL2 /// KIR2DL4 /// KIR2DL5A /// KIR2DL5B /// KIR2DS1 /// KIR2DS2 /// KIR2DS3 /// KIR2DS4 /// KIR3DL3 /// KIR3DL3 /// KIR3DS1 (11738374_at) / RFU C1QL1 (11718748_at) / Fold change /veh C1QL1 (11718748_at) / RFU TMPRSS4 (11747572_a_at) / Fold change /veh TMPRSS4 (11747572_a_at) / RFU HAMP (11756126_x_at) / Fold change /veh HAMP (11756126_x_at) / RFU RNFT2 (11725882_a_at) / Fold change /veh RNFT2 (11725882_a_at) / RFU NR4A2 (11747474_a_at) / Fold change /veh NR4A2 (11747474_a_at) / RFU ABCC12 (11746883_a_at) / Fold change /veh ABCC12 (11746883_a_at) / RFU TMEM136 (11760407_x_at) / Fold change /veh TMEM136 (11760407_x_at) / RFU CLDN22 /// WWC2 (11732394_at) / Fold change /veh CLDN22 /// WWC2 (11732394_at) / RFU HLA-DPB1 (11760878_x_at) / Fold change /veh HLA-DPB1 (11760878_x_at) / RFU SPINT1 (11716480_a_at) / Fold change /veh SPINT1 (11716480_a_at) / RFU GAP43 (11754022_s_at) / Fold change /veh GAP43 (11754022_s_at) / RFU A4GNT (11735810_at) / Fold change /veh A4GNT (11735810_at) / RFU PRB3 (11715151_x_at) / Fold change /veh PRB3 (11715151_x_at) / RFU TUBB4B (11761932_at) / Fold change /veh TUBB4B (11761932_at) / RFU CAPN14 (11732068_a_at) / Fold change /veh CAPN14 (11732068_a_at) / RFU TMCC2 (11721928_a_at) / Fold change /veh TMCC2 (11721928_a_at) / RFU IRGQ (11745062_a_at) / Fold change /veh IRGQ (11745062_a_at) / RFU FAM174B (11720279_a_at) / Fold change /veh FAM174B (11720279_a_at) / RFU TMPRSS4 (11748680_a_at) / Fold change /veh TMPRSS4 (11748680_a_at) / RFU FAM212B (11763350_a_at) / Fold change /veh FAM212B (11763350_a_at) / RFU PLEKHG5 (11743358_a_at) / Fold change /veh PLEKHG5 (11743358_a_at) / RFU ZSCAN30 (11745921_a_at) / Fold change /veh ZSCAN30 (11745921_a_at) / RFU CMKLR1 (11741424_a_at) / Fold change /veh CMKLR1 (11741424_a_at) / RFU LOC101060620 /// MAPK8IP1 (11723275_at) / Fold change /veh LOC101060620 /// MAPK8IP1 (11723275_at) / RFU SPTSSB (11747773_x_at) / Fold change /veh SPTSSB (11747773_x_at) / RFU PRSS12 (11739890_at) / Fold change /veh PRSS12 (11739890_at) / RFU BIN1 (11741810_x_at) / Fold change /veh BIN1 (11741810_x_at) / RFU WNT11 (11732464_a_at) / Fold change /veh WNT11 (11732464_a_at) / RFU C10orf10 (11716521_a_at) / Fold change /veh C10orf10 (11716521_a_at) / RFU C5orf56 (11738089_at) / Fold change /veh C5orf56 (11738089_at) / RFU CYB561 (11721691_x_at) / Fold change /veh CYB561 (11721691_x_at) / RFU ANKRD19P (11752326_a_at) / Fold change /veh ANKRD19P (11752326_a_at) / RFU OR2T12 /// OR2T33 /// OR2T8 (11738714_s_at) / Fold change /veh OR2T12 /// OR2T33 /// OR2T8 (11738714_s_at) / RFU VCAN (11748164_a_at) / Fold change /veh VCAN (11748164_a_at) / RFU JSRP1 (11732532_at) / Fold change /veh JSRP1 (11732532_at) / RFU KRTAP10-11 (11738290_x_at) / Fold change /veh KRTAP10-11 (11738290_x_at) / RFU MYO3A (11730013_a_at) / Fold change /veh MYO3A (11730013_a_at) / RFU EBF3 (11725865_a_at) / Fold change /veh EBF3 (11725865_a_at) / RFU CAMK2N1 (11719241_x_at) / Fold change /veh CAMK2N1 (11719241_x_at) / RFU C5orf56 (11738088_a_at) / Fold change /veh C5orf56 (11738088_a_at) / RFU OLFML3 (11715873_a_at) / Fold change /veh OLFML3 (11715873_a_at) / RFU LOC100653217 /// NTM (11731650_a_at) / Fold change /veh LOC100653217 /// NTM (11731650_a_at) / RFU MAPK11 (11762145_a_at) / Fold change /veh MAPK11 (11762145_a_at) / RFU FIZ1 (11724087_x_at) / Fold change /veh FIZ1 (11724087_x_at) / RFU OASL (11726364_x_at) / Fold change /veh OASL (11726364_x_at) / RFU SOX15 (11748057_x_at) / Fold change /veh SOX15 (11748057_x_at) / RFU CD79A (11719716_a_at) / Fold change /veh CD79A (11719716_a_at) / RFU HIST1H1D (11736915_at) / Fold change /veh HIST1H1D (11736915_at) / RFU CASKIN2 (11723855_a_at) / Fold change /veh CASKIN2 (11723855_a_at) / RFU LOC730098 (11760151_x_at) / Fold change /veh LOC730098 (11760151_x_at) / RFU OR4N2 (11742367_at) / Fold change /veh OR4N2 (11742367_at) / RFU PRRT2 (11749266_a_at) / Fold change /veh PRRT2 (11749266_a_at) / RFU SNX32 (11753110_a_at) / Fold change /veh SNX32 (11753110_a_at) / RFU CDHR5 (11726645_a_at) / Fold change /veh CDHR5 (11726645_a_at) / RFU RCAN1 (11760418_a_at) / Fold change /veh RCAN1 (11760418_a_at) / RFU FAM167A (11723789_a_at) / Fold change /veh FAM167A (11723789_a_at) / RFU FAM26E (11764081_at) / Fold change /veh FAM26E (11764081_at) / RFU ISYNA1 (11749810_s_at) / Fold change /veh ISYNA1 (11749810_s_at) / RFU ACY1 (11761880_at) / Fold change /veh ACY1 (11761880_at) / RFU 11764098_at / Fold change /veh 11764098_at / RFU SAMD14 (11745864_x_at) / Fold change /veh SAMD14 (11745864_x_at) / RFU NPB (11741838_a_at) / Fold change /veh NPB (11741838_a_at) / RFU TMPRSS6 (11731388_a_at) / Fold change /veh TMPRSS6 (11731388_a_at) / RFU KRTAP10-2 (11738614_at) / Fold change /veh KRTAP10-2 (11738614_at) / RFU ARHGAP8 /// PRR5-ARHGAP8 (11727945_x_at) / Fold change /veh ARHGAP8 /// PRR5-ARHGAP8 (11727945_x_at) / RFU KRTAP5-7 /// NADSYN1 (11734609_at) / Fold change /veh KRTAP5-7 /// NADSYN1 (11734609_at) / RFU RASL12 (11751679_a_at) / Fold change /veh RASL12 (11751679_a_at) / RFU CDKN2B (11736163_a_at) / Fold change /veh CDKN2B (11736163_a_at) / RFU PRF1 (11729649_at) / Fold change /veh PRF1 (11729649_at) / RFU, ZNF638 /// ZNF638-IT1 / Fold change vs veh, ZNF638 /// ZNF638-IT1 / RFU, PANK3 / Fold change vs veh, PANK3 / RFU, SH3YL1 / Fold change vs veh, SH3YL1 / RFU, ZEB2 / Fold change vs veh, ZEB2 / RFU, NRIP1 / Fold change vs veh, NRIP1 / RFU, PTTG1IP / Fold change vs veh, PTTG1IP / RFU, CAPN2 / Fold change vs veh, CAPN2 / RFU, MED14 / Fold change vs veh, MED14 / RFU, SNORA58 / Fold change vs veh, SNORA58 / RFU, C1orf63 / Fold change vs veh, C1orf63 / RFU, LRRFIP1 / Fold change vs veh, LRRFIP1 / RFU, NDUFAF7 / Fold change vs veh, NDUFAF7 / RFU, SLC12A2 / Fold change vs veh, SLC12A2 / RFU, IBTK / Fold change vs veh, IBTK / RFU, ESF1 / Fold change vs veh, ESF1 / Fold change vs veh, TMEM50B / RFU, TAOK1 / Fold change vs veh, TAOK1 / RFU, ACBD3 / Fold change vs veh, ACBD3 / RFU, TMA16 / Fold change vs veh, TMA16 / RFU, RWDD3 / Fold change vs veh, RWDD3 / RFU, BCAT1 / Fold change vs veh, BCAT1 / RFU, EDEM3 / Fold change vs veh, EDEM3 / RFU, TMEM33 / Fold change vs veh, TMEM33 / RFU, WDR75 / Fold change vs veh, WDR75 / RFU, AHCTF1 / Fold change vs veh, AHCTF1 / RFU, TFRC / Fold change vs veh, TFRC / RFU, ZDHHC17 / Fold change vs veh, ZDHHC17 / RFU, NOM1 / Fold change vs veh, NOM1 / RFU, ARL8B / Fold change vs veh, ARL8B / RFU, ZBTB11 / Fold change vs veh, ZBTB11 / RFU, TAMM41 / Fold change vs veh, TAMM41 / RFU, KIAA1704 /// LOC100996395 / Fold change vs veh, KIAA1704 /// LOC100996395 / RFU, ING1 / Fold change vs veh, ING1 / RFU, TRMT61B / Fold change vs veh, TRMT61B / RFU, FUBP3 / Fold change vs veh, FUBP3 / RFU, TP53 / Fold change vs veh, TP53 / RFU, TNKS2 / Fold change vs veh, TNKS2 / RFU, ZFP14 / Fold change vs veh, ZFP14 / RFU, ACTR2 / Fold change vs veh, ACTR2 / RFU, PPP3R1 / Fold change vs veh, PPP3R1 / RFU, PIK3R1 / Fold change vs veh, PIK3R1 / RFU, HNRNPA1 / Fold change vs veh, HNRNPA1 / RFU, RNF170 / Fold change vs veh, RNF170 / RFU, ZNF28 / Fold change vs veh, ZNF28 / RFU, RNGTT / Fold change vs veh, RNGTT / RFU, OGT / Fold change vs veh, OGT / RFU, BRD1 / Fold change vs veh, BRD1 / RFU, MARS / Fold change vs veh, MARS / RFU, ZNF655 / Fold change vs veh, ZNF655 / RFU, FAHD1 / Fold change vs veh, FAHD1 / RFU, BDP1 / Fold change vs veh, BDP1 / RFU, LRRCC1 / Fold change vs veh, LRRCC1 / RFU, ARID1A / Fold change vs veh, ARID1A / RFU, ZNF146 / Fold change vs veh, ZNF146 / RFU, ZNF330 / Fold change vs veh, ZNF330 / RFU, GPN3 / Fold change vs veh, GPN3 / RFU, C9orf123 / Fold change vs veh, C9orf123 / RFU, N4BP2L2 / Fold change vs veh, N4BP2L2 / RFU, ARFIP1 / Fold change vs veh, ARFIP1 / RFU, FAM179B / Fold change vs veh, FAM179B / RFU, BCL10 / Fold change vs veh, BCL10 / RFU, UHRF1BP1L / Fold change vs veh, UHRF1BP1L / RFU, BET1 / Fold change vs veh, BET1 / RFU, CNOT2 / Fold change vs veh, CNOT2 / RFU, ZNF268 / Fold change vs veh, ZNF268 / Fold change vs veh, ZNF507 / RFU, DGCR2 / Fold change vs veh, DGCR2 / RFU, WDSUB1 / Fold change vs veh, WDSUB1 / Fold change vs veh, HSP90B1 /// MIR3652 / RFU, ADSS / Fold change vs veh, ADSS / RFU, GK / Fold change vs veh, GK / RFU, ZNF148 / Fold change vs veh, ZNF148 / RFU, TAF9 / Fold change vs veh, TAF9 / RFU, SLC1A5 / Fold change vs veh, SLC1A5 / RFU, SLMO2 / Fold change vs veh, SLMO2 / RFU, ABCC4 / Fold change vs veh, ABCC4 / RFU, LOC101060439 /// RAP1B / Fold change vs veh, LOC101060439 /// RAP1B / RFU, RFX7 / Fold change vs veh, RFX7 / RFU, GTPBP10 / Fold change vs veh, GTPBP10 / RFU, CNEP1R1 / Fold change vs veh, CNEP1R1 / RFU, BIVM-ERCC5 /// ERCC5 / Fold change vs veh, BIVM-ERCC5 /// ERCC5 / RFU, ILF3 / Fold change vs veh, ILF3 / RFU 11762660_at / Fold change /veh 11762660_at / RFU VCAN (11757783_s_at) / Fold change /veh VCAN (11757783_s_at) / RFU DDX43 (11728927_at) / Fold change /veh DDX43 (11728927_at) / RFU KRT8 (11758188_x_at) / Fold change /veh KRT8 (11758188_x_at) / RFU NKD1 (11759106_at) / Fold change /veh NKD1 (11759106_at) / RFU SRD5A1 (11742802_a_at) / Fold change /veh SRD5A1 (11742802_a_at) / RFU TPSAB1 /// TPSB2 (11721975_s_at) / Fold change /veh TPSAB1 /// TPSB2 (11721975_s_at) / RFU GSTM3 (11746129_a_at) / Fold change /veh GSTM3 (11746129_a_at) / RFU IL23R (11737362_x_at) / Fold change /veh IL23R (11737362_x_at) / RFU TMEM51 (11727254_a_at) / Fold change /veh TMEM51 (11727254_a_at) / RFU PIWIL2 (11732686_x_at) / Fold change /veh PIWIL2 (11732686_x_at) / RFU ORM1 (11744905_x_at) / Fold change /veh ORM1 (11744905_x_at) / RFU CCDC152 (11743942_at) / Fold change /veh CCDC152 (11743942_at) / RFU ECM1 (11717891_a_at) / Fold change /veh ECM1 (11717891_a_at) / RFU IL23R (11748794_a_at) / Fold change /veh IL23R (11748794_a_at) / RFU TNFAIP8L3 (11732012_x_at) / Fold change /veh TNFAIP8L3 (11732012_x_at) / RFU MBOAT4 (11741988_at) / Fold change /veh MBOAT4 (11741988_at) / RFU 11764193_at / Fold change /veh 11764193_at / RFU TMEM53 (11763286_at) / Fold change /veh TMEM53 (11763286_at) / RFU MAGEB2 (11727129_at) / Fold change /veh MAGEB2 (11727129_at) / RFU TMEM200A (11744735_a_at) / Fold change /veh TMEM200A (11744735_a_at) / RFU CCDC152 (11751479_a_at) / Fold change /veh CCDC152 (11751479_a_at) / RFU FAM211A (11726209_a_at) / Fold change /veh FAM211A (11726209_a_at) / RFU RGS16 (11746705_a_at) / Fold change /veh RGS16 (11746705_a_at) / RFU VCAN (11755009_s_at) / Fold change /veh VCAN (11755009_s_at) / RFU RHOB (11743442_s_at) / Fold change /veh RHOB (11743442_s_at) / RFU RGS16 (11720943_a_at) / Fold change /veh RGS16 (11720943_a_at) / RFU RGS16 (11720944_at) / Fold change /veh RGS16 (11720944_at) / RFU, VPS4B / Fold change vs veh, VPS4B / RFU, CREB1 / Fold change vs veh, CREB1 / RFU, DNAJC13 / Fold change vs veh, DNAJC13 / RFU, GNAQ / Fold change vs veh, GNAQ / RFU, CDK5R1 / Fold change vs veh, CDK5R1 / RFU, ZRANB3 / Fold change vs veh, ZRANB3 / RFU, CUL4A / Fold change vs veh, CUL4A / RFU, CCNY / Fold change vs veh, CCNY / RFU, UFL1 / Fold change vs veh, UFL1 / RFU, COG3 / Fold change vs veh, COG3 / RFU, DIAPH2 / Fold change vs veh, DIAPH2 / RFU, SKA2 / Fold change vs veh, SKA2 / RFU, AFF3 / Fold change vs veh, AFF3 / RFU, LMF1 / Fold change vs veh, LMF1 / RFU, IPO11 / Fold change vs veh, IPO11 / RFU, DFFB / Fold change vs veh, DFFB / RFU, FOXP1 / Fold change vs veh, FOXP1 / RFU, CARD8 / Fold change vs veh, CARD8 / RFU, STRN3 / Fold change vs veh, STRN3 / RFU, ADK / Fold change vs veh, ADK / RFU, RASSF2 / Fold change vs veh, RASSF2 / RFU, WIPF1 / Fold change vs veh, WIPF1 / RFU, LARP1B / Fold change vs veh, LARP1B / RFU, RASA1 / Fold change vs veh, RASA1 / RFU, RB1 / Fold change vs veh, RB1 / RFU, PPFIA1 / Fold change vs veh, PPFIA1 / RFU, MAT2A / Fold change vs veh, MAT2A / RFU, CCT5 / Fold change vs veh, CCT5 / RFU, WDR92 / Fold change vs veh, WDR92 / RFU, CUX1 / Fold change vs veh, CUX1 / RFU, TTC7A / Fold change vs veh, TTC7A / RFU, TMEM135 / Fold change vs veh, TMEM135 / RFU, DEPTOR / Fold change vs veh, DEPTOR / RFU, CPM / Fold change vs veh, CPM / RFU, DNAJB6 / Fold change vs veh, DNAJB6 / RFU, CACNA2D3 / Fold change vs veh, CACNA2D3 / RFU, DTX4 / Fold change vs veh, DTX4 / RFU, TFCP2 / Fold change vs veh, TFCP2 / RFU, GMCL1 /// GMCL1P1 / Fold change vs veh, GMCL1 /// GMCL1P1 / RFU, AEBP2 / Fold change vs veh, AEBP2 / RFU, SNHG1 /// SNORD22 /// SNORD25 /// SNORD26 /// SNORD27 /// SNORD28 /// SNORD29 /// SNORD31 / Fold change vs veh, SNHG1 /// SNORD22 /// SNORD25 /// SNORD26 /// SNORD27 /// SNORD28 /// SNORD29 /// SNORD31 / Fold change (Aza/veh), C12orf56 (ProbeSet 11735607_a_at) / Fold change (ACY-1035/veh), C12orf56 (ProbeSet 11735607_a_at) / Fold change (Aza/veh), FGFR1OP (ProbeSet 11751329_s_at) / Fold change (ACY-1035/veh), FGFR1OP (ProbeSet 11751329_s_at) / Fold change (Aza/veh), VPS36 (ProbeSet 11739960_a_at) / Fold change (ACY-1035/veh), VPS36 (ProbeSet 11739960_a_at) / RFU SYPL1 (11715823_x_at) / Fold change /veh SYPL1 (11715823_x_at) / RFU IGFBP7 (11715501_s_at) / Fold change /veh IGFBP7 (11715501_s_at) / RFU REEP3 (11722064_at) / Fold change /veh REEP3 (11722064_at) / RFU IGLL1 (11728026_x_at) / Fold change /veh IGLL1 (11728026_x_at): dose or concentration left out as unconfirmed
Conditions: ProbeSet 11740528_a_at; LIST D

Nc1ccc(-c2cccs2)cc1NC(=O)c1ccc2c(c1)cc(C1CC1)n2CCN1CCOCC1 [ACY-1035]
RFU, AFF3: 703.28 RFU
